# In US11753376B2, “Benzyloxy pyridine derivatives and uses thereof” (AUTOTAC INC., priority 2021, dated 2023):
# Test system: intracellular autophagy flux (LC3-II) in HEK293T cell line
# Assay: Evaluation of intracellular autophagy activity (autophagy flux) by immunoblotting
# Type: cell-based, human
# Conditions: HCQ 5 μM, 24 hours
# Experimental: In order to evaluate the autophagy flux activity efficacy by the compounds, the HEK293T cell line, which is a cell line derived from a human embryonic kidney-derived cell, was cultured using a DMEM medium containing 10% FBS and 1% streptomycin/penicillin in an incubator with 5% carbon dioxide. In order to measure the autophagy flux activity according to the treatment of the compounds synthesized in the above examples, each cell was dispensed in a 6-well plate. Additional incubation was carried out for 24 hours so that the cells were completely attached to the surface of the plate. Cells were collected after treatment with the compound (5 μM) alone or with the lysosomal inhibitor, hydroxychloroquine (HCQ) (5 μM) for 24 hours to determine whether the compound increases autophagy flux. […] Based on the measured total protein concentration, a sample buffer was added to each sample and reacted at 100° C. for 5 minutes. […]
# FIG. 2 is a result of immunoblotting showing the efficacy of the compound (ATB1110) to activate intracellular autophagy flux. […] As HCQ was treated, the level of LC3-II, a marker of autophagy activity, was increased, and the difference between LC3-II in the untreated state and the treated state was measured. […]
smiles,measurement,value
"CCN(CCO)CCCC(C)Nc1ccnc2cc(Cl)ccc12 (stereo not shown) [HCQ, hydroxychloroquine]","level of LC3-II, a marker of autophagy activity",increased
